Test results: ChEMBL document CHEMBL5543084, “Development of cannabidiol derivatives as potent broad-spectrum antibacterial agents with membrane-disruptive mechanism” (Eur J Med Chem, 2024)
Values after ≈ are worked out from the molar mass of the structure shown.

Tests used:
Escherichia coli = experiment: Antibacterial activity against Escherichia coli ATCC 25922 assessed as inhibition of bacterial growth incubated for 24 hrs by broth dilution method; format: functional
Klebsiella pneumoniae [1] = experiment: Antibacterial activity against Klebsiella pneumoniae ATCC 10031 assessed as inhibition of bacterial growth incubated for 24 hrs by broth dilution method; format: functional
Staphylococcus aureus [2] = experiment: Antibacterial activity against methicillin-resistant Staphylococcus aureus N315 assessed as inhibition of bacterial growth incubated for 24 hrs by broth dilution method; format: functional
[3] = Hemolytic activity against rabbit blood cells incubated for 1 hr relative to control; format: toxicity, cell-based, Oryctolagus cuniculus, Erythrocyte; settings: rabbit blood cells (erythrocytes)
Acinetobacter baumannii [4] = experiment: Antibacterial activity against Acinetobacter baumannii R2889 assessed as inhibition of bacterial growth incubated for 24 hrs by broth dilution method; format: functional
Staphylococcus aureus [5] = experiment: Antibacterial activity against methicillin-resistant Staphylococcus aureus NCTC 10442 assessed as inhibition of bacterial growth incubated for 24 hrs by broth dilution method; format: functional
Staphylococcus aureus [6] = experiment: Antibacterial activity against Staphylococcus aureus ATCC 29213 assessed as inhibition of bacterial growth incubated for 24 hrs by broth dilution method; format: functional
Klebsiella pneumoniae [7] = experiment: Antibacterial activity against Klebsiella pneumoniae ATCC 14581 assessed as inhibition of bacterial growth incubated for 24 hrs by broth dilution method; format: functional
Acinetobacter baumannii [8] = experiment: Antibacterial activity against Acinetobacter baumannii ATCC 17978 assessed as inhibition of bacterial growth incubated for 24 hrs by broth dilution method; format: functional
Pseudomonas aeruginosa = experiment: Antibacterial activity against Pseudomonas aeruginosa ATCC 9027 assessed as inhibition of bacterial growth incubated for 24 hrs by broth dilution method; format: functional

| Compound | MIC (Escherichia coli) [µg/mL] | MIC (Klebsiella pneumoniae [1]) [µg/mL] | MIC (Staphylococcus aureus [2]) [µg/mL] | HC50 at 1 h [3] [µg/mL] | MIC (Acinetobacter baumannii [4]) [µg/mL] | MIC (Staphylococcus aureus [5]) [µg/mL] | MIC (Staphylococcus aureus [6]) [µg/mL] | MIC (Klebsiella pneumoniae [7]) [µg/mL] | MIC (Acinetobacter baumannii [8]) [µg/mL] | MIC (Pseudomonas aeruginosa) [µg/mL] |
| --- | --- | --- | --- | --- | --- | --- | --- | --- | --- | --- |
| C=C(C)[C@@H]1CCC(C)=C[C@H]1c1c(OCCCCN(CCCC)CCCC)cc(CCCCC)cc1OCCCCN(CCCC)CCCC | > 100 | > 50 | > 50 | > 200 | > 50 | > 50 | > 50 | > 50 | > 50 | > 50 |
| C=C(C)[C@@H]1CCC(C)=C[C@H]1c1c(OCCCCN2CCCC2)cc(CCCCC)cc1OCCCCN1CCCC1 | 12.5 (≈ 22.1 µM) | 12.5 (≈ 22.1 µM) | 3.12 (≈ 5.53 µM) | 174 | 12.5 (≈ 22.1 µM) | 3.12 (≈ 5.53 µM) | 3.12 (≈ 5.53 µM) | 25 (≈ 44.3 µM) | 25 (≈ 44.3 µM) | 25 (≈ 44.3 µM) |
| C=C(C)[C@@H]1CCC(C)=C[C@H]1c1c(OCCCCCCN)cc(CCCCC)cc1OCCCCCCN | 3.12 (≈ 6.09 µM) | 1.56 (≈ 3.04 µM) | 1.56 (≈ 3.04 µM) | 59.7 | 3.12 (≈ 6.09 µM) | 0.78 (≈ 1.52 µM) | 1.56 (≈ 3.04 µM) | 0.78 (≈ 1.52 µM) | 3.12 (≈ 6.09 µM) | > 50 |
| C=C(C)[C@@H]1CCC(C)=C[C@H]1c1c(OCCCCCCNC(=N)N)cc(CCCCC)cc1OCCCCCCNC(=N)N | 12.5 (≈ 20.9 µM) | 25 (≈ 41.9 µM) | 1.56 (≈ 2.61 µM) | 72.6 | 12.5 (≈ 20.9 µM) | 1.56 (≈ 2.61 µM) | 0.78 (≈ 1.31 µM) | > 50 | 12.5 (≈ 20.9 µM) | > 50 |
| C=C(C)[C@@H]1CCC(C)=C[C@H]1c1c(O)cc(CCCCC)cc1O [CANNABIDIOL] | > 100 | > 50 | 1.56 (≈ 4.96 µM) | > 200 | > 50 | 3.12 (≈ 9.94 µM) | 3.12 (≈ 9.94 µM) | > 50 | > 50 | > 50 |
| C=C(C)[C@@H]1CCC(C)=C[C@H]1c1c(OCCCCN(C)CCCN(C)CCCNC)cc(CCCCC)cc1OCCCCN(C)CCCN(C)CCCNC | 3.12 (≈ 4.06 µM) | 6.25 (≈ 8.12 µM) | 3.12 (≈ 4.06 µM) | > 200 | 3.12 (≈ 4.06 µM) | 1.56 (≈ 2.03 µM) | 1.56 (≈ 2.03 µM) | 6.25 (≈ 8.12 µM) | 6.25 (≈ 8.12 µM) | 6.25 (≈ 8.12 µM) |
| C=C(C)[C@@H]1CCC(C)=C[C@H]1c1c(OCCCCCCCCCCBr)cc(CCCCC)cc1OCCCCCCCCCCBr | > 50 | > 50 | > 50 | > 200 | > 50 | > 50 | > 50 | > 50 | > 50 | > 50 |
| C=C(C)[C@@H]1CCC(C)=C[C@H]1c1c(OCCCCCNC(=N)N)cc(CCCCC)cc1OCCCCCNC(=N)N | 3.12 (≈ 5.49 µM) | 1.56 (≈ 2.74 µM) | 1.56 (≈ 2.74 µM) | 60.5 | 3.12 (≈ 5.49 µM) | 0.78 (≈ 1.37 µM) | 3.12 (≈ 5.49 µM) | 3.12 (≈ 5.49 µM) | 3.12 (≈ 5.49 µM) | 25 (≈ 43.9 µM) |
| C=C(C)[C@@H]1CCC(C)=C[C@H]1c1c(OCC(=O)O)cc(CCCCC)cc1OCC(=O)O | > 50 | > 50 | > 50 | > 200 | > 50 | > 50 | > 50 | > 50 | > 50 | > 50 |
| C=C(C)[C@@H]1CCC(C)=C[C@H]1c1c(OCCCCN(C)C)cc(CCCCC)cc1OCCCCN(C)C | 6.25 (≈ 12.2 µM) | 6.25 (≈ 12.2 µM) | 3.12 (≈ 6.09 µM) | 132 | 6.25 (≈ 12.2 µM) | 6.25 (≈ 12.2 µM) | 3.12 (≈ 6.09 µM) | 6.25 (≈ 12.2 µM) | 6.25 (≈ 12.2 µM) | 50 (≈ 97.5 µM) |
| C=C(C)[C@@H]1CCC(C)=C[C@H]1c1c(OCCCCCCCCCCNC(=N)N)cc(CCCCC)cc1OCCCCCCCCCCNC(=N)N | > 50 | > 50 | > 50 | > 200 | > 50 | 50 (≈ 70.5 µM) | 50 (≈ 70.5 µM) | > 50 | > 50 | > 50 |
| C=C(C)[C@@H]1CCC(C)=C[C@H]1c1c(OCC(=O)N[C@@H](CCCCN)C(=O)OC)cc(CCCCC)cc1OCC(=O)N[C@@H](CCCCN)C(=O)OC | 50 (≈ 69.9 µM) | 50 (≈ 69.9 µM) | 25 (≈ 35 µM) | 116 | 50 (≈ 69.9 µM) | 25 (≈ 35 µM) | 25 (≈ 35 µM) | > 50 | 50 (≈ 69.9 µM) | > 50 |
| C=C(C)[C@@H]1CCC(C)=C[C@H]1c1c(OCCCCNC)cc(CCCCC)cc1OCCCCNC | 50 (≈ 103 µM) | 25 (≈ 51.6 µM) | 3.12 (≈ 6.45 µM) | 107 | 25 (≈ 51.6 µM) | 3.12 (≈ 6.45 µM) | 3.12 (≈ 6.45 µM) | 50 (≈ 103 µM) | 25 (≈ 51.6 µM) | > 50 |
| C=C(C)[C@@H]1CCC(C)=C[C@H]1c1c(OCCCCCBr)cc(CCCCC)cc1OCCCCCBr | > 50 | > 50 | > 50 | > 200 | > 50 | > 50 | > 50 | > 50 | > 50 | > 50 |
| C=C(C)[C@@H]1CCC(C)=C[C@H]1c1c(OCCCCI)cc(CCCCC)cc1OCCCCI | > 100 | > 50 | > 50 | > 200 | > 50 | > 50 | > 50 | > 50 | > 50 | > 50 |
| C=C(C)[C@@H]1CCC(C)=C[C@H]1c1c(OCCCCN(CCO)CCO)cc(CCCCC)cc1OCCCCN(CCO)CCO | 100 (≈ 158 µM) | 25 (≈ 39.5 µM) | 25 (≈ 39.5 µM) | > 200 | 50 (≈ 79 µM) | 25 (≈ 39.5 µM) | 25 (≈ 39.5 µM) | 50 (≈ 79 µM) | > 50 | > 50 |
| C=C(C)[C@@H]1CCC(C)=C[C@H]1c1c(OCCCBr)cc(CCCCC)cc1OCCCBr | > 50 | > 50 | > 50 | > 200 | > 50 | > 50 | > 50 | > 50 | > 50 | > 50 |
| C=C(C)[C@@H]1CCC(C)=C[C@H]1c1c(OCCCN)cc(CCCCC)cc1OCCCN | 6.25 (≈ 14.6 µM) | 6.25 (≈ 14.6 µM) | 6.25 (≈ 14.6 µM) | > 200 | 12.5 (≈ 29.2 µM) | 6.25 (≈ 14.6 µM) | 6.25 (≈ 14.6 µM) | 12.5 (≈ 29.2 µM) | 6.25 (≈ 14.6 µM) | > 50 |
| CN[C@H](CC(C)C)C(=O)N[C@H]1C(=O)N[C@@H](CC(N)=O)C(=O)N[C@H]2C(=O)N[C@H]3C(=O)N[C@H](C(=O)N[C@H](C(=O)O)c4cc(O)cc(O)c4-c4cc3ccc4O)[C@H](O)c3ccc(c(Cl)c3)Oc3cc2cc(c3O[C@@H]2O[C@H](CO)[C@@H](O)[C@H](O)[C@H]2O[C@H]2C[C@](C)(N)[C@H](O)[C@H](C)O2)Oc2ccc(cc2Cl)[C@H]1O [VANCOMYCIN] | > 50 |  | 1.56 (≈ 1.08 µM) | > 200 |  | 1.56 (≈ 1.08 µM) | 0.78 (≈ 0.538 µM) |  |  |  |
